A short description of this data set: Relaxivity measurement, 1.0 T MRI scanner. The data set is classed as physicochemical. As to conditions: room temperature. Here is the method:
A relaxivity study was performed by evaluating the longitudinal relaxation time T1 of HP—Au—Gd nanoparticles at different Gd concentrations at room temperature by using a 1.0 T-MRI scanner (ICON, Bruker Biospin, Ettlingen, Germany). The commercially available gadolinium contrast agent (Gadopentetic acid or Gd-DTPA) was used as the positive control. The contrast agents were initially placed into syringes and set in the center of the volume coil. The sample temperature was maintained at room temperature. By using the MRI scanner, horizontal single-slice T1-weighted MR images were acquired (spin echo, TR/TE=400/10 ms, slice thickness=2.0 mm, matrix=256×256, field of view (FOV)=38.4×38.4 mm, number of averages (NA)=10, number of slices=1). Horizontal single-slice inversion-recovery MRI was done to calculate the T1 and r1 by using rapid acquisition with relaxation enhancement (RARE) acquisition (TR=20,000 ms, TE=17 ms, inversion time=45, 100, 200, 400, 800, 1600, 3200, 6400, 8000, 10000, 12000 ms, matrix size=64×64, FOV=38.4×38.4 mm, slice thickness=2.0 mm, RARE factor=4, and NA=1). Then, the r1 relaxivities were calculated by using the following equation: r1=(1/T1-1/T1(0))/[Gd] where [Gd] is the concentration of Gd, and 1/T1(0) and 1/T1 are the longitudinal relaxation rate without and with paramagnetic species, respectively.

For the molecule `CNC[C@H](O)[C@@H](O)[C@H](O)[C@H](O)CO.CNC[C@H](O)[C@@H](O)[C@H](O)[C@H](O)CO.O=C([O-])CN(CCN(CC(=O)[O-])CC(=O)O)CCN(CC(=O)[O-])CC(=O)O.[Gd+3]` [Gd-DTPA, Gadopentetic acid], the r1 relaxivity was 3.26 mM⁻¹ s⁻¹.

The values are drawn from patent publication US20230090223A1, “NANOPARTICLES FOR USE IN THE TREATMENT AND DIAGNOSIS OF CNS DISORDERS” (priority 2020, published 2023).
